Experiments:
[1] = test system: mouse embryonic fibroblasts lipofected with poly I:C; assay: In vitro inflammation/infection model: poly I:C induced mouse embryonic fibroblasts; type: cell-based; conditions: 25 μM, 6h, IFN-beta ELISA in culture supernatants
Procedure: Mouse Embryonic Fibroblasts (MEFs) were lipofected with poly I:C and treated with […] compounds of the invention (25 μM) for 6h. After 6h of culture, elF2alpha-phosphorylation (elF2a-P) and PPP1R15A (GADD34) expression was monitored by western blotting, while type-1 Interferon(IFN)-beta production was quantified in culture supernatants by ELISA. Control (nt) and poly I:C/DMSO are respectively negative and positive controls. Poly I:C (polyinosinic:polycytidylic acid or polyinosinic-polycytidylic acid sodium salt) is an immunostimulant used to simulate viral infections. Poly I:C which is structurally similar to double-stranded RNA, is known to interact with toll-like receptor 3 which is expressed in the intracellular compartments of B-cells and dendritic cells. Guanabenz (25 μM) was used as reference inhibitory compound.
MEFs were cultured in DMEM, 10% FCS (HyClone, Perbio), 100 units/ml penicillin, 100 μg/ml streptomycin, 2 mM glutamine, 1× MEM non-essential amino acids and 50 μM 2-mercaptoethanol. MEFS were treated for the indicated time with 10 μg/ml poly I:C (InvivoGen) in combination with lipofectamine 2000 (Invitrogen).
Cells were lysed in 1% Triton X-100, 50 mM Hepes, 10 mM NaCl, 2.5 mM MgCl2, 2 mM EDTA, 10% glycerol, supplemented with Complete Mini Protease Inhibitor Cocktail Tablets (Roche). Protein quantification was performed using the BCA Protein Assay (Pierce). 25-50 μg of Triton X-100-soluble material was loaded on 2%-12% gradient or 8% SDS-PAGE before immunoblotting and chemi-luminescence detection (SuperSignal West Pico Chemi-luminescent Substrate, Pierce). Rabbit polyclonal antibodies recognizing GADD34 (C-19) were from Santa Cruz Biotechnology and anti-elF2alpha[pS^52] were from Invitrogen.
IFN-beta quantification in culture supernatant was performed using the Mouse Interferon Beta ELISA kit (PBL Interferon Source) according to manufacturer instructions.
Normal response of MEFs to poly I:C is characterized by PPP1R15A expression, increase in elF2alpha-P (variable in time and related to the levels PPP1R15A expression) mediated by PKR activation and type-I IFN production (range 500 to 700 pg/ml). Knock out PPP1R15A MEFs are unable to produce this cytokine in response to poly I:C.
The potency of compounds of the invention to inhibit PPP1R15A was evaluated by measuring the increase of elF2alpha phosphorylation, the decrease of PPP1R15A expression due to its own pharmacological inhibition resulting in general protein synthesis inhibition and type-I IFN production.

[2] = test system: interferon-gamma injured rat oligodendrocytes; assay: In vitro multiple sclerosis model: interferon-gamma injured rat oligodendrocytes co-cultured with neurons; type: cell-based; conditions: interferon-gamma 70 U/ml, 48 H; total number of O4 cells
Procedure: Neurons/OPC were cultured as previously describes by Yang et al. (2005 J Neurosci Methods;149(1) pp50-6) with modifications. Briefly, the full brain (without cerebellum) obtained from 17-day old rat embryos (Wistar, Janvier labs) were removed. The full brains were treated for 20 min at 37° C. with a trypsin-EDTA (Pan Biotech) solution at a final concentration of 0.05% trypsin and 0.02% EDTA. The dissociation was stopped by addition of Dulbecco's modified Eagle's medium (DMEM) with 4.5 g/liter of glucose (Pan Biotech), containing DNAse I grade II (final concentration 0.5 mg/ml; Pan Biotech, Batch: h140508) and 10% fetal calf serum (FCS; Invitrogen, Batch: 41Q7218K). Cells were mechanically dissociated by three forced passages through the tip of a 10-ml pipette. Cells were then centrifuged at 515 g for 10 min at 4° C. The supernatant was discarded, and the pellet was resuspended in a defined culture medium consisting of Neurobasal medium (Invitrogen, Batch: 1636133) with a 2% solution of B27 supplement (Invitrogen, Batch: 1660670), 2 mmol/liter of L-glutamine (Pan Biotech), 2% of PS solution, and, 1% of FCS and 10 ng/ml of platelet derived growth factor (PDGF-AA, Batch: H131205). The cells were seeded at a density of 20 000 cells per well in 96 well plates precoated with PLL (BD corning, Batch: 6614022) and laminine (Sigma, Batch: 083M4034V). The plates were maintained at 37° C. into a humidified incubator, in an atmosphere of air (95%)-CO2 (5%). Half of the medium was changed every 2 days with fresh medium. On days 18, test compounds were pre-incubated 1 hour before interferon-gamma (70 U/ml, 48H, R&D system, Batch: AAL2214081) application.
On day 18 of culture, test compounds (4 concentrations) were solved in culture medium and then pre-incubated with oligodendrocyte co-cultured with neurons for 1 hour before the interferon-gamma (70 U/ml, 48H) application. […]
For each condition, 30 pictures per well were taken using ImageXpress (Molecular Device) with 20× magnification. […] All values were expressed as mean +/−SEM (s.e.mean) (n=6 wells per condition).

Row | Structure (SMILES) | prevention of type-I IFN production (FIG. 9) [1] | protection of interferon-gamma injured rat oligodendrocytes (FIG. 2) [2]
1 | CCONC(=N)N/N=C/c1c(F)cccc1Cl [Compound 17, 2-(2-chloro-6-fluorobenzylidene)-N-ethoxyhydrazinecarboximidamide] | prevent type-I IFN production | dose dependent protection
2 | CCCONC(=N)N/N=C/c1ccccc1Cl [Compound 12, 2-(2-chlorobenzylidene)-N-propoxyhydrazinecarboximidamide] | prevent type-I IFN production | dose dependent protection
3 | CCO/N=C(\N)N/N=C/c1ccccc1Cl [Compound 10, 2-(2-chlorobenzylidene)-N′-ethoxyhydrazinecarboximidamide] | prevent type-I IFN production | –
4 | CCONC(=N)N/N=C/c1c(Cl)cccc1Cl [Compound 11, 2-(2,6-dichlorobenzylidene)-N-ethoxyhydrazinecarboximidamide] | prevent type-I IFN production | dose dependent protection

— US11084783B2, “O-alkyl-benzylideneguanidine derivatives and therapeutic use for the treatment of disorders associated with an accumulation of misfolded proteins” (INFLECTIS BIOSCIENCE, priority 2014, dated 2021)
